Source: US5112841A, “Imidazole derivatives and antiepileptics comprising said imidazole derivatives as effective ingredients” (Mitsui Toatsu Chemicals, Incorporated, priority 1990, dated 1992)
Structures can show the parent of a compound that is named as a salt.

Tests used:
mice = assay: Maximal Electroshock Seizure Test (tonic-extensor convulsions of hind legs); type: in vivo, ddy Male mice; settings: Mus musculus; antiepileptic action; oral, electric shock 1 hour after dosing (200 Hz, 50 mA, 0.2 second)
Description: ddy Male mice (body weight: 25-30 g) were used in groups each of which consisted of 5-10 mice. A test compound was orally administered. One hour later, an electric shock (200 Hz, 50 mA, 0.2 second) was applied through corneal electrodes. […] Antiepileptic action (%) was calculated in accordance with the following calculation formula, and ED50 (mg/Kg) was determined therefrom. [formula]

in vivo [1] = assay: in vivo; parameters: species or system ddy Male mice; settings: mouse, po
Description: ddy Male mice (body weight: 25-30 g) were used in groups each of which consisted of 5-10 mice. A test compound was orally administered. One hour later, each mouse was caused to hold with the fore paws thereof a stainless steel wire whose diameter was 1.5 mm. […] Traction activity (%) was calculated in accordance with the following calculation formula, and ED50 (mg/Kg) was determined therefrom. [formula]

in vivo [2] = assay: in vivo; parameters: species or system ddy Male mice; settings: mouse, po; remark: listed apart in the source
Description: ddy Male mice (body weight: 25-30 g) were used in groups each of which consisted of 5-10 mice. A test compound was orally administered One hour later, each mouse was placed on a rod which rotated a full turn per second. Mice which fell down within 120 seconds were counted. Rotorod action (%) was calculated in accordance with the following calculation formula, and ED50 (mg/Kg) was determined therefrom. [formula]

[3] = Acute Toxicity (death within 5 days); settings: mouse, in vivo, oral, death in 5 days (LD50 in the method text), read-out: ED50
Description: ddy Male mice (body weight: 25-30 g) were used in groups each of which consisted of 5-6 mice. A test compound was orally administered. Mice which died in 5 days were counted. Death rate (%) wa calculated in accordance with the following calculation formula, and LD50 (mg/Kg) was determined therefrom. [formula]

Cl.Fc1ccc(-c2cc(-n3cc(Cn4ccnc4)c4ccccc43)on2)cc1 [Example 3, 1-{3-(4-Fluorophenyl)-5-isoxazolyl)-3-(1-imidazolyl)methylindole hydrochloride]
ED50 (mice): 20 to 40 mg/kg

COc1cccc(-c2cc(-n3cc(Cn4ccnc4)c4ccccc43)on2)c1.Cl [Example 11, 1-(3-(3-Methoxyphenyl)-5-isoxazolyl}-3-(1-imidazolyl)methylindole hydrochloride]
TD50 at 1 h (in vivo [1]): > 750 mg/kg | TD50 at 1 h (in vivo [2]): > 750 mg/kg | ED50 (mice): 14 mg/kg | LD50 at 120 h [3]: > 1000 mg/kg

Cl.Clc1cccc(-c2cc(-n3cc(Cn4ccnc4)c4ccccc43)on2)c1 [Example 10, 1-{3-(3-Chlorophenyl)-5-isoxazolyl)-3-(1-imidazolyl)methylindole hydrochloride]
ED50 (mice): 20 to 40 mg/kg

Cl.Clc1ccccc1-c1cc(-n2cc(Cn3ccnc3)c3ccccc32)on1 [Example 9, 1-{3-(2-Chlorophenyl)-5-isoxazolyl}-3-(1-imidazolyl)methylindole hydrochloride]
ED50 (mice): 20 to 40 mg/kg

Cl.c1ccc(-c2cc(-n3cc(Cn4ccnc4)c4ccccc43)on2)cc1 [Example 1, 1-(3-phenyl-5-isoxazolyl)-3-(1-imidazolyl)methylindole hydrochloride]
TD50 at 1 h (in vivo [1]): > 750 mg/kg | TD50 at 1 h (in vivo [2]): 500 mg/kg | ED50 (mice): 9 mg/kg | LD50 at 120 h [3]: > 1000 mg/kg

O=C1NC(=O)C(c2ccccc2)(c2ccccc2)N1 [Phenytoin.Na, reference compound]
TD50 at 1 h (in vivo [1]): 350 mg/kg | TD50 at 1 h (in vivo [2]): 186 mg/kg | ED50 (mice): 7 mg/kg | LD50 at 120 h [3]: 300 to 500 mg/kg

Cl.Clc1ccc(-c2cc(-n3cc(Cn4ccnc4)c4ccccc43)on2)cc1 [Example 4, 1-{3-(4-Chlorophenyl)-5-isoxazolyl}-3-(1-imidazolyl)methylindole hydrochloride]
ED50 (mice): 20 to 40 mg/kg

Cl.N#Cc1ccc(-c2cc(-n3cc(Cn4ccnc4)c4ccccc43)on2)cc1 [Example 7, 1-(3-(4-Cyanophenyl)-5-isoxazolyl)-3-(1-imidazolyl)methylindole hydrochloride]
ED50 (mice): 20 to 40 mg/kg

Cl.FC(F)(F)c1ccc(-c2cc(-n3cc(Cn4ccnc4)c4ccccc43)on2)cc1 [Example 8, 1-{3-(4-Trifluoromethylphenyl)-5-isoxazolyl}-3-(1-imidazolyl)methylindole hydrochloride]
ED50 (mice): 20 to 40 mg/kg

Cc1ccc(-c2cc(-n3cc(Cn4ccnc4)c4ccccc43)on2)cc1 [Example 5, 1-(3-(p-Toluyl)-5-isoxazolyl}-3-(l-imidazolyl)-methylindole hydrochloride]
ED50 (mice): 16 mg/kg

COc1ccc(-c2cc(-n3cc(Cn4ccnc4)c4ccccc43)on2)cc1.Cl [Example 6, 1-{3-(4-Methoxyphenyl)-5-isoxazolyl}-3-(1-imidazolyl)methylindol hydrochloride]
TD50 at 1 h (in vivo [1]): > 750 mg/kg | TD50 at 1 h (in vivo [2]): > 750 mg/kg | ED50 (mice): 7 mg/kg | LD50 at 120 h [3]: > 1000 mg/kg
